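Each compound was tested at five concentrations against cells in 96-well plates for 48 hours. TGI denotes the concentration required for complete inhibition of growth.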
What was measured:
Assay in all cases: inhibition of tumour cell growth, NCI panel, 48 h
SW-620 colon = tested on: SW-620 colon
PC-3 prostate = tested on: PC-3 prostate
ACHN renal = tested on: ACHN renal
MDA-N = tested on: MDA-N
U251 CNS = tested on: U251 CNS
RXF 393 renal = tested on: RXF 393 renal
HL-60(TB) leukemia = tested on: HL-60(TB) leukemia
EKVX NSCLC = tested on: EKVX NSCLC
COLO 205 colon = tested on: COLO 205 colon
A498 renal = tested on: A498 renal
SF-268 CNS = tested on: SF-268 CNS
NCI/ADR-RES ovarian = tested on: NCI/ADR-RES ovarian
SR leukemia = tested on: SR leukemia
NCI-H226 lung = tested on: NCI-H226 lung
SF-539 CNS = tested on: SF-539 CNS
UACC-257 melanoma = tested on: UACC-257 melanoma
SK-MEL-28 melanoma = tested on: SK-MEL-28 melanoma
MALME-3M melanoma = tested on: MALME-3M melanoma
MDA-MB-435 = tested on: MDA-MB-435
UO-31 renal = tested on: UO-31 renal
SNB-19 CNS = tested on: SNB-19 CNS
SN12C renal = tested on: SN12C renal
T-47D breast = tested on: T-47D breast
HOP-92 NSCLC = tested on: HOP-92 NSCLC
HCT-116 colon = tested on: HCT-116 colon
CCRF-CEM leukemia = tested on: CCRF-CEM leukemia
OVCAR-8 ovarian = tested on: OVCAR-8 ovarian
HCT-15 colon = tested on: HCT-15 colon
BT-549 breast = tested on: BT-549 breast
SF-295 CNS = tested on: SF-295 CNS
OVCAR-3 ovarian = tested on: OVCAR-3 ovarian
SK-OV-3 ovarian = tested on: SK-OV-3 ovarian
SK-MEL-5 melanoma = tested on: SK-MEL-5 melanoma
NCI-H460 lung = tested on: NCI-H460 lung
KM12 colon = tested on: KM12 colon
UACC-62 melanoma = tested on: UACC-62 melanoma
M14 melanoma = tested on: M14 melanoma
K-562 leukemia = tested on: K-562 leukemia
HCC-2998 colon = tested on: HCC-2998 colon
RPMI-8226 leukemia = tested on: RPMI-8226 leukemia
NCI-H23 lung = tested on: NCI-H23 lung
HT29 colon = tested on: HT29 colon
MOLT-4 leukemia = tested on: MOLT-4 leukemia
DU-145 prostate = tested on: DU-145 prostate
HS 578T breast = tested on: HS 578T breast
HOP-62 NSCLC = tested on: HOP-62 NSCLC
786-0 renal = tested on: 786-0 renal
TK-10 renal = tested on: TK-10 renal
SNB-75 CNS = tested on: SNB-75 CNS
A549 NSCLC = tested on: A549 NSCLC
MCF7 breast = tested on: MCF7 breast
IGROV1 ovarian = tested on: IGROV1 ovarian
OVCAR-5 ovarian = tested on: OVCAR-5 ovarian
MDA-MB-231 breast = tested on: MDA-MB-231 breast
LOX IMVI melanoma = tested on: LOX IMVI melanoma
CAKI-1 renal = tested on: CAKI-1 renal
SK-MEL-2 melanoma = tested on: SK-MEL-2 melanoma
OVCAR-4 ovarian = tested on: OVCAR-4 ovarian
NCI-H522 lung = tested on: NCI-H522 lung

COc1cc(COC(=O)N2CC=CC2C(=O)O)c([N+](=O)[O-])cc1OC (stereo unspecified)
TGI (SW-620 colon): > 100 µM
TGI (PC-3 prostate): > 100 µM
TGI (ACHN renal): > 100 µM
TGI (MDA-N): > 100 µM
TGI (U251 CNS): > 100 µM
TGI (RXF 393 renal): > 100 µM
TGI (HL-60(TB) leukemia): > 100 µM
TGI (EKVX NSCLC): > 100 µM
TGI (COLO 205 colon): > 100 µM
TGI (A498 renal): > 100 µM
TGI (SF-268 CNS): > 100 µM
TGI (NCI/ADR-RES ovarian): > 100 µM
TGI (SR leukemia): > 100 µM
TGI (NCI-H226 lung): > 100 µM
TGI (SF-539 CNS): > 100 µM
TGI (UACC-257 melanoma): > 100 µM
TGI (SK-MEL-28 melanoma): > 100 µM
TGI (MALME-3M melanoma): > 100 µM
TGI (MDA-MB-435): > 100 µM
TGI (UO-31 renal): > 100 µM
TGI (SNB-19 CNS): > 100 µM
TGI (SN12C renal): > 100 µM
TGI (T-47D breast): > 100 µM
TGI (HOP-92 NSCLC): > 100 µM
TGI (HCT-116 colon): > 100 µM
TGI (CCRF-CEM leukemia): > 100 µM
TGI (OVCAR-8 ovarian): > 100 µM
TGI (HCT-15 colon): > 100 µM
TGI (BT-549 breast): > 100 µM
TGI (SF-295 CNS): > 100 µM
TGI (OVCAR-3 ovarian): > 100 µM
TGI (SK-OV-3 ovarian): > 100 µM
TGI (SK-MEL-5 melanoma): > 100 µM
TGI (NCI-H460 lung): > 100 µM
TGI (KM12 colon): > 100 µM
TGI (UACC-62 melanoma): > 100 µM
TGI (M14 melanoma): > 100 µM
TGI (K-562 leukemia): > 100 µM
TGI (HCC-2998 colon): > 100 µM
TGI (RPMI-8226 leukemia): > 100 µM
TGI (NCI-H23 lung): > 100 µM
TGI (HT29 colon): > 100 µM
TGI (MOLT-4 leukemia): > 100 µM
TGI (DU-145 prostate): > 100 µM
TGI (HS 578T breast): > 100 µM
TGI (HOP-62 NSCLC): > 100 µM
TGI (786-0 renal): > 100 µM
TGI (TK-10 renal): > 100 µM
TGI (SNB-75 CNS): > 100 µM
TGI (A549 NSCLC): > 100 µM
TGI (MCF7 breast): > 100 µM
TGI (IGROV1 ovarian): > 100 µM
TGI (OVCAR-5 ovarian): > 100 µM

O=c1cc(NNc2ccccc2F)[nH]c(=O)[nH]1
TGI (SW-620 colon): 31.9 µM
TGI (MDA-MB-231 breast): 29.9 µM
TGI (PC-3 prostate): 32.9 µM
TGI (ACHN renal): 32.3 µM
TGI (MDA-N): 32.5 µM
TGI (LOX IMVI melanoma): 29.7 µM
TGI (U251 CNS): 31.9 µM
TGI (RXF 393 renal): 3.29 µM
TGI (HL-60(TB) leukemia): 34.3 µM
TGI (CAKI-1 renal): 25.7 µM
TGI (SK-MEL-2 melanoma): 30.8 µM
TGI (COLO 205 colon): 33.8 µM
TGI (A498 renal): > 100 µM
TGI (SF-268 CNS): 35.2 µM
TGI (NCI/ADR-RES ovarian): 31.4 µM
TGI (SR leukemia): 7.37 µM
TGI (NCI-H226 lung): 42.8 µM
TGI (SF-539 CNS): 30.7 µM
TGI (UACC-257 melanoma): 32 µM
TGI (SK-MEL-28 melanoma): 35.1 µM
TGI (MALME-3M melanoma): 33.3 µM
TGI (UO-31 renal): 24.6 µM
TGI (SNB-19 CNS): > 100 µM
TGI (T-47D breast): 18 µM
TGI (HOP-92 NSCLC): 29.2 µM
TGI (HCT-116 colon): 30.6 µM
TGI (CCRF-CEM leukemia): 47.6 µM
TGI (HCT-15 colon): 29.6 µM
TGI (BT-549 breast): 31.8 µM
TGI (OVCAR-3 ovarian): 31.6 µM
TGI (SK-OV-3 ovarian): 60.8 µM
TGI (SK-MEL-5 melanoma): 49.5 µM
TGI (NCI-H460 lung): 2.3 µM
TGI (KM12 colon): 28.7 µM
TGI (OVCAR-4 ovarian): 31.5 µM
TGI (UACC-62 melanoma): 30.9 µM
TGI (M14 melanoma): 31.5 µM
TGI (K-562 leukemia): 57.6 µM
TGI (HCC-2998 colon): 34.9 µM
TGI (RPMI-8226 leukemia): 46.2 µM
TGI (NCI-H23 lung): 31.6 µM
TGI (HT29 colon): 34.9 µM
TGI (MOLT-4 leukemia): 54 µM
TGI (DU-145 prostate): > 100 µM
TGI (HS 578T breast): 63.4 µM
TGI (NCI-H522 lung): 31.5 µM
TGI (786-0 renal): 28.7 µM
TGI (TK-10 renal): 27.5 µM
TGI (SNB-75 CNS): 72.5 µM
TGI (A549 NSCLC): > 100 µM
TGI (MCF7 breast): 21.2 µM
TGI (IGROV1 ovarian): 30.4 µM
TGI (OVCAR-5 ovarian): 38.7 µM
